# Test results taken from patent publication US20090105476A1, “Organic Compounds” (Novartis AG, priority 2006, published 2009).
# Counter-ions that a name gives are not always drawn.
# Target: adenosine A2A receptor (Homo sapiens, UniProt P29274)
# Assay: A2A receptor agonist assay by the method of L. J. Murphree et al, Molecular Pharmacology 61, 455-462 (2002)
# Format: binding
# Conditions: Mol. Pharmacol. 61, 455-462 (2002)
# Source text: Compounds of formula I and their pharmaceutically acceptable salts are useful as pharmaceuticals. In particular, they activate the adenosine A2A receptor, i.e. they act as A2A receptor agonists.
# Sequence of adenosine A2A receptor (P29274 whole entry): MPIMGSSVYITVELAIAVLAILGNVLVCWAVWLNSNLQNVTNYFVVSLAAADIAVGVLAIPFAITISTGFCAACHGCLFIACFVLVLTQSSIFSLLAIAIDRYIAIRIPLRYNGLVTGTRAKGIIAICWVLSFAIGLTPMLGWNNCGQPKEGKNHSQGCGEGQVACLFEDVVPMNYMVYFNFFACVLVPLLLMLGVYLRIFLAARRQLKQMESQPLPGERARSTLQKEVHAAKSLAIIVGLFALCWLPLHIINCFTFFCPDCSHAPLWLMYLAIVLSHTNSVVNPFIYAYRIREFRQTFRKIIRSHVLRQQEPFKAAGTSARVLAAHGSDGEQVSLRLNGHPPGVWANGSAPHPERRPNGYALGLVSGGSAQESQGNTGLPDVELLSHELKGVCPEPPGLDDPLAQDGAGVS
row,Compound,Ki [nM]
1,"CS(=O)(=O)N[C@H]1C[C@@H](n2cnc3c(N)nc(Cl)nc32)[C@H](O)[C@@H]1O [Example 1, N-[(1S,2R,3S,4R)-4-(6-Amino-2-chloropurin-9-yl)-2,3-dihydroxy-cyclopentyl]-methane-sulfonamide Trifluoroacetate]",582
2,"CCC(=O)N[C@H]1C[C@@H](n2cnc3c(N)nc(NCCc4ccccc4)nc32)[C@H](O)[C@@H]1O [Example 2, N-[(1S,2R,3S,4R)-4-(6-Amino-2-phenethlamino-purin-9-yl)-2,3-dihydroxy-cyclopentyl]-propionamide trifluoroacetate]",18
3,"CCC(=O)N[C@H]1C[C@@H](n2cnc3c(NCC(c4ccccc4)c4ccccc4)nc(Cl)nc32)[C@H](O)[C@@H]1O [Example 4, N-{(1S,2R,3S,4R)-4-[2-chloro-6-(2,2-diphenyl-ethylamino)purin-9-yl]-2,3-dihydroxy-cyclopentyl}-propionamide]",57
4,"CCCCC#Cc1nc(NCC(c2ccccc2)c2ccccc2)c2ncn(C3CC(NC(=O)CC)C(O)C3O)c2n1 [Example 6, N-{(1S,2R,3S,4R)-4-[6-(2,2-Diphenyl-ethylamino-2-hex-1-ynyl-purin-9-yl]-2,3-dihydroxy-cyclopentyl}-propionamide]",8
5,"O=C(N[C@H]1C[C@@H](n2cnc3c(NCC(c4ccccc4)c4ccccc4)nc(Cl)nc32)[C@H](O)[C@@H]1O)C1CC1 [Example 12, Cyclopropanecarboxylic acid {(1S,2R,3S,4R)-4-[2-chloro-6-(2,2-diphenyl-ethylamino)-purin-9-yl]-2,3-dihydroxy-cyclopentyl}-amide]",3
6,"CCC(=O)N[C@H]1C[C@@H](n2cnc3c(NC(CC)CC)nc(Cl)nc32)[C@H](O)[C@@H]1O [Example 14, N-{(1S,2R,3S,4R)-4-[2-chloro-6-(1-ethyl-propylamino)-purin-9-yl]-2,3-dihydroxy-cyclopentyl}-propionamide]",690
7,"CCC(=O)N[C@H]1C[C@@H](n2cnc3c(NC(CC)CC)nc(NC4CCC(N)CC4)nc32)[C@H](O)[C@@H]1O (stereo partly drawn) [Example 20, N-{(1S,2R,3 S,4R)-4-[2-(4-Amino-cyclohexylamino)-6-(1-ethyl-propylamino)-purin-9-yl]-2,3-dihydroxy-cyclopentyl}-propionamide]",8
8,"CCC(=O)N[C@H]1C[C@@H](n2cnc3c(NCC(c4ccccc4)c4ccccc4)nc(N4CC[C@@H](NC(=O)N[C@@H]5CCNC5)C4)nc32)[C@H](O)[C@@H]1O [Example 39, N-((1S,2R,3S,4R)-4-4-{6-(2,2-Diphenyl-ethylamino)-2-[(R)-3-((R)-3-pyrrolidin-3-yl)ureido)-pyrrolidin-1-yl]-purin-9-yl}-2,3-dihydroxy-cyclopentyl)-propionamide Trifluoroacetate]",3
9,"CC(=O)N[C@H]1C[C@@H](n2cnc3c(NCC(c4ccccc4)c4ccccc4)nc(C(=O)NCCNC(=O)NC4CCN(c5ccccn5)CC4)nc32)[C@H](O)[C@@H]1O [Example 42, 9-((1R,2S,3R,4S)-4-acetylamino-2,3-dihydroxy-cyclopentyl)-6-(2,2-diphenyl-ethylamino)-9H-purine-2-carboxylic acid {2-[3-(3,4,5,6-tetra-hydro-2H-[1,2′]bipyridinyl-4-yl)-ureido]-ethyl}-amide trifluoroacetate]",2
10,"CCC(=O)N[C@H]1C[C@@H](n2cnc3c(NCc4cccc5ccccc45)nc(N4CC[C@@H](NC(=O)N[C@@H]5CCNC5)C4)nc32)[C@H](O)[C@@H]1O [Example 55, N-((1S,2R,3S,4R)-2,3-Dihydroxy-4-{6-[(naphthalen-1-ylmethyl)-amino]-2-[(R)-3-((R)-3-pyrrolidin-3-ylureido)-pyrrolidin-1-yl]-purin-9-yl}-cyclopentyl)-propionamide Trifluoroacetate]",4
11,"CCC(=O)N[C@H]1C[C@@H](n2cnc3c(NCCC(c4ccccc4)c4ccccc4)nc(NCCc4cn(CC)cn4)nc32)[C@H](O)[C@@H]1O [Example 61, N-{(1S,2R,3S,4R)-4-(6-(3,3-diphenyl-propyl-amino)-2-[2-(1-ethyl-1H-imidazol-4-yl)-ethylamino]-purin-9-yl}-2,3-dihydroxy-cyclopentyl)-propionamide trifluoroacetate]",9
